Results from patent US20100267561A1, “HERBICIDAL PYRIDAZINONE DERIVATIVES” (priority 2007, published 2010).
Where two headings read alike, the source gives them in different places.

Tests used:
Experiment in all cases: Test B pre-/postemergence plant response
Format in all cases: in vivo
[1] = tested on: yellow nutsedge (Cyperus esculentus); conditions: Cyperus, read-out: Plant response rating, Nutsedge, Yellow; for pest or weed control at 16 g/ha: 16 g ai/ha; for pest or weed control at 31 g/ha: 31 g ai/ha, 100 complete control; for pest or weed control at 62 g/ha: 62 g ai/ha; for pest or weed control at 125 g/ha: 125 g ai/ha
How it was run: (§1)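 Visual scoring from 0 (no effect) to 100 (complete control) against untreated controls was done 13 to 15 days after greenhouse treatment. Chemicals were formulated in a surfactant-containing non-phytotoxic solvent and applied to soil preemergence or to 1- to 4-leaf (2-18 cm) plants postemergence.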

[2] = tested on: wheat (Triticum aestivum); conditions: Triticum aestivum, read-out: Plant response rating, Wheat; for plant injury at 16 g/ha: 16 g ai/ha; for plant injury at 31 g/ha: 31 g ai/ha, 100 complete control; for plant injury at 62 g/ha: 62 g ai/ha; for plant injury at 125 g/ha: 125 g ai/ha
How it was run: as §1

[3] = tested on: velvetleaf (Abutilon theophrasti); conditions: Abutilon theophrasti, read-out: Plant response rating, Velvetleaf; for pest or weed control at 16 g/ha: 16 g ai/ha; for pest or weed control at 31 g/ha: 31 g ai/ha, 100 complete control; for pest or weed control at 62 g/ha: 62 g ai/ha; for pest or weed control at 125 g/ha: 125 g ai/ha
How it was run: as §1

[4] = tested on: goosegrass (Eleusine indica); conditions: Eleusine indica, read-out: Plant response rating, Goosegrass; for pest or weed control at 16 g/ha: 16 g ai/ha; for pest or weed control at 31 g/ha: 31 g ai/ha, 100 complete control; for pest or weed control at 62 g/ha: 62 g ai/ha; for pest or weed control at 125 g/ha: 125 g ai/ha
How it was run: as §1

[5] = tested on: bermudagrass (Cynodon dactylon); conditions: Cynodon dactylon, read-out: Plant response rating, Bermudagrass; for pest or weed control at 16 g/ha: 16 g ai/ha; for pest or weed control at 31 g/ha: 31 g ai/ha, 100 complete control; for pest or weed control at 62 g/ha: 62 g ai/ha; for pest or weed control at 125 g/ha: 125 g ai/ha
How it was run: as §1

[6] = tested on: giant foxtail (Setaria faberii); conditions: Setaria faberi, read-out: Plant response rating, Foxtail, Giant; for pest or weed control at 16 g/ha: 16 g ai/ha; for pest or weed control at 31 g/ha: 31 g ai/ha, 100 complete control; for pest or weed control at 62 g/ha: 62 g ai/ha; for pest or weed control at 125 g/ha: 125 g ai/ha
How it was run: as §1

[7] = tested on: lambsquarters (Chenopodium album); conditions: Chenopodium album, read-out: Plant response rating, Lambsquarters; for pest or weed control at 16 g/ha: 16 g ai/ha; for pest or weed control at 31 g/ha: 31 g ai/ha, 100 complete control; for pest or weed control at 125 g/ha: 125 g ai/ha
How it was run: as §1

corn (Zea mays) = conditions: Zea mays; for Corn plant response rating (crop injury, 0 = no effect, 100 = complete kill) at 16 g/ha: 16 g ai/ha; for Corn plant response rating (crop injury, 0 = no effect, 100 = complete kill) at 31 g/ha: 31 g ai/ha, 100 complete control; for Corn plant response rating (crop injury, 0 = no effect, 100 = complete kill) at 62 g/ha: 62 g ai/ha; for Corn plant response rating (crop injury, 0 = no effect, 100 = complete kill) at 125 g/ha: 125 g ai/ha
How it was run: as §1

kochia (Kochia scoparia) = conditions: Postemergence
How it was run: as §1

soybean (Glycine max) = conditions: Glycine max, read-out: Plant response rating, Soybean; for plant injury at 16 g/ha: 16 g ai/ha; for plant injury at 31 g/ha: 31 g ai/ha, 100 complete control; for plant injury at 62 g/ha: 62 g ai/ha; for plant injury at 125 g/ha: 125 g ai/ha
How it was run: as §1

[8] = tested on: green foxtail (Setaria viridis); conditions: Setaria viridis, read-out: Plant response rating, Foxtail, Green; for pest or weed control at 16 g/ha: 16 g ai/ha; for pest or weed control at 31 g/ha: 31 g ai/ha, 100 complete control; for pest or weed control at 62 g/ha: 62 g ai/ha; for pest or weed control at 125 g/ha: 125 g ai/ha
How it was run: as §1

[9] = tested on: woolly cupgrass (Eriochloa villosa); conditions: Eriochloa villosa, read-out: Plant response rating, Cupgrass, Woolly; for pest or weed control at 16 g/ha: 16 g ai/ha; for pest or weed control at 31 g/ha: 31 g ai/ha, 100 complete control; for pest or weed control at 62 g/ha: 62 g ai/ha; for pest or weed control at 125 g/ha: 125 g ai/ha
How it was run: as §1

[10] = tested on: cocklebur (Xanthium strumarium); conditions: Xanthium strumarium, read-out: Plant response rating, Cocklebur; for pest or weed control at 62 g/ha: 62 g ai/ha; for pest or weed control at 125 g/ha: 125 g ai/ha
How it was run: as §1

[11] = post-emergence, Postemergence, scale 0 to 100
[12] = post-emergence, Postemergence, scale 0 to 100, 0 no effect
[13] = pre-emergence, Preemergence, scale 0 to 100 (0 no effect, 100 complete control)
[14] = pre-emergence, Preemergence, 0 to 100 scale, 0 no effect
[15] = pre-emergence, Preemergence, scale 0 to 100

CCc1cc(-c2ccc(C(F)(F)F)cc2)nn1-c1c(O)cnn(C)c1=O [Compound 11, 4-[5-ethyl-3-[4-(trifluoromethyl)phenyl]-1H-pyrazol-1-yl]-5-hydroxy-2-methyl-3(2H)-pyridazinone]
0: Plant response rating, Kochia (kochia (Kochia scoparia); 16 g ai/ha, scale 0 to 100) | Plant response rating, Kochia (kochia (Kochia scoparia); 31 g ai/ha, scale 0 to 100, 0 no effect, 100 complete control) | Plant response rating, Kochia (kochia (Kochia scoparia); 62 g ai/ha, scale 0 to 100) | Plant response rating, Kochia (kochia (Kochia scoparia); 125 g ai/ha, scale 0 to 100)
90%: plant injury at 16 g/ha [2, 11] | plant injury at 16 g/ha [2, 13] | pest or weed control at 31 g/ha [4, 14] | pest or weed control at 16 g/ha [6, 13] | pest or weed control at 31 g/ha [6, 14]
0%: pest or weed control at 16 g/ha [1, 11] | pest or weed control at 31 g/ha [1, 12] | pest or weed control at 62 g/ha [1, 11] | pest or weed control at 125 g/ha [1, 11] | pest or weed control at 16 g/ha [1, 13] | pest or weed control at 31 g/ha [1, 14] | pest or weed control at 62 g/ha [1, 15] | pest or weed control at 125 g/ha [1, 15] | pest or weed control at 16 g/ha [3, 11] | pest or weed control at 31 g/ha [3, 12] | pest or weed control at 62 g/ha [3, 11] | pest or weed control at 125 g/ha [3, 11] | pest or weed control at 16 g/ha [3, 13] | pest or weed control at 31 g/ha [3, 14] | pest or weed control at 62 g/ha [3, 15] | pest or weed control at 125 g/ha [3, 15] | pest or weed control at 16 g/ha [7, 11] | pest or weed control at 31 g/ha [7, 12] | pest or weed control at 62 g/ha ([7]; post-emergence, Postemergence, 62 g ai/ha, scale 0 to 100) | pest or weed control at 125 g/ha [7, 11] | pest or weed control at 16 g/ha [7, 13] | pest or weed control at 31 g/ha [7, 14] | pest or weed control at 125 g/ha [7, 15] | plant injury at 16 g/ha (soybean (Glycine max); [11]) | plant injury at 31 g/ha (soybean (Glycine max); [12]) | plant injury at 62 g/ha (soybean (Glycine max); [11]) | plant injury at 125 g/ha (soybean (Glycine max); [11]) | plant injury at 16 g/ha (soybean (Glycine max); [13]) | plant injury at 31 g/ha (soybean (Glycine max); [14]) | plant injury at 62 g/ha (soybean (Glycine max); [15]) | plant injury at 125 g/ha (soybean (Glycine max); [15]) | pest or weed control at 16 g/ha ([10]; post-emergence, Postemergence, 16 g ai/ha, scale 0 to 100) | pest or weed control at 31 g/ha ([10]; post-emergence, Postemergence, 31 g ai/ha, scale 0 to 100, 0 no effect, 100 complete control) | pest or weed control at 62 g/ha [10, 11] | pest or weed control at 125 g/ha [10, 11] | pest or weed control at 62 g/ha [10, 15] | pest or weed control at 125 g/ha [10, 15]
70%: Corn plant response rating (crop injury, 0 = no effect, 100 = complete kill) at 16 g/ha (corn (Zea mays); [13])
85%: pest or weed control at 16 g/ha [4, 13] | Corn plant response rating (crop injury, 0 = no effect, 100 = complete kill) at 31 g/ha (corn (Zea mays); [14]) | pest or weed control at 16 g/ha [8, 11]
100%: plant injury at 31 g/ha [2, 12] | plant injury at 62 g/ha [2, 11] | plant injury at 125 g/ha [2, 11] | plant injury at 125 g/ha [2, 15] | pest or weed control at 16 g/ha [4, 11] | pest or weed control at 31 g/ha [4, 12] | pest or weed control at 62 g/ha [4, 11] | pest or weed control at 125 g/ha [4, 11] | pest or weed control at 62 g/ha [4, 15] | pest or weed control at 125 g/ha [4, 15] | pest or weed control at 16 g/ha [5, 11] | pest or weed control at 31 g/ha [5, 12] | pest or weed control at 62 g/ha [5, 11] | pest or weed control at 125 g/ha [5, 11] | pest or weed control at 16 g/ha [5, 13] | pest or weed control at 31 g/ha [5, 14] | pest or weed control at 62 g/ha [5, 15] | pest or weed control at 125 g/ha [5, 15] | pest or weed control at 16 g/ha [6, 11] | pest or weed control at 31 g/ha [6, 12] | pest or weed control at 62 g/ha [6, 11] | pest or weed control at 125 g/ha [6, 11] | pest or weed control at 62 g/ha [6, 15] | pest or weed control at 125 g/ha [6, 15] | Corn plant response rating (crop injury, 0 = no effect, 100 = complete kill) at 16 g/ha (corn (Zea mays); [11]) | Corn plant response rating (crop injury, 0 = no effect, 100 = complete kill) at 31 g/ha (corn (Zea mays); [12]) | Corn plant response rating (crop injury, 0 = no effect, 100 = complete kill) at 62 g/ha (corn (Zea mays); [11]) | Corn plant response rating (crop injury, 0 = no effect, 100 = complete kill) at 125 g/ha (corn (Zea mays); [11]) | Corn plant response rating (crop injury, 0 = no effect, 100 = complete kill) at 125 g/ha (corn (Zea mays); [15]) | pest or weed control at 31 g/ha [8, 12] | pest or weed control at 62 g/ha [8, 11] | pest or weed control at 125 g/ha [8, 11] | pest or weed control at 16 g/ha [8, 13] | pest or weed control at 31 g/ha [8, 14] | pest or weed control at 62 g/ha [8, 15] | pest or weed control at 125 g/ha [8, 15] | pest or weed control at 31 g/ha [9, 12] | pest or weed control at 62 g/ha [9, 11] | pest or weed control at 125 g/ha [9, 11] | pest or weed control at 16 g/ha [9, 13] | pest or weed control at 31 g/ha [9, 14] | pest or weed control at 62 g/ha [9, 15] | pest or weed control at 125 g/ha [9, 15]
95%: plant injury at 31 g/ha [2, 14] | plant injury at 62 g/ha [2, 15] | Corn plant response rating (crop injury, 0 = no effect, 100 = complete kill) at 62 g/ha (corn (Zea mays); [15]) | pest or weed control at 16 g/ha [9, 11]
